Reference: patent US20260014226A1, “STABLE READY TO DILUTE COMPOSITION OF CARFILZOMIB” (Kashiv BioSciences, LLC, priority 2021, published 2026)

Tested on: diluted blood (red blood cell)
Assay type: cell-based, Human
Protocol: The term “hemolytic potential’ refers to ability of fluid to degrade the red blood cell and releases hemoglobin. The hemolytic potential is measured as release of hemoglobin from blood cells. • Blank, Negative and Positive Control • Blank: Diluted Blood • Negative control (Vehicle): 0.9% Sodium chloride (Normal Saline) is isotonic with Human blood. • Positive control: 5% Saponin was used as positive control Required quantity of blood was collected into K2 EDTA vials and immediately mixed well, this was used for the study within 24 hours of blood collection. The blood was maintained at ambient room temperature before use. Hemoglobin was determined using Advia 2120i heamtology system for this purpose, concentrations will be determined twice, before and after dilution. A separate aliquot of blood was centrifuged, and plasma was analyzed for hemoglobin to ensure blood was not hemolyzed before the study. Hemoglobin standard solutions was prepared using human hemoglobin. Initially, a stock solution of 180 mg hemoglobin/mL was prepared in Drabkin's reagent by dissolving the hemoglobin powder in Drabkin's reagent. The working standards of at least 6 different concentrations was prepared in Drabkin's reagent and was read in plate reader at 540 nm wavelength. […]

Saponin [Positive control]
% Hemolysis: 100.00%
